Data published in ChEMBL document CHEMBL3751755, “Developing steroidal aromatase inhibitors-an effective armament to win the battle against breast cancer” (Eur J Med Chem, 2015).

Key:
Aromatase [1] = molecular target: T1, Aromatase (Homo sapiens, UniProt P11511); assay: Inhibition of human aromatase extracted from placental microsomes at 520 nM after 10 mins
T1 sequence (P11511 whole entry): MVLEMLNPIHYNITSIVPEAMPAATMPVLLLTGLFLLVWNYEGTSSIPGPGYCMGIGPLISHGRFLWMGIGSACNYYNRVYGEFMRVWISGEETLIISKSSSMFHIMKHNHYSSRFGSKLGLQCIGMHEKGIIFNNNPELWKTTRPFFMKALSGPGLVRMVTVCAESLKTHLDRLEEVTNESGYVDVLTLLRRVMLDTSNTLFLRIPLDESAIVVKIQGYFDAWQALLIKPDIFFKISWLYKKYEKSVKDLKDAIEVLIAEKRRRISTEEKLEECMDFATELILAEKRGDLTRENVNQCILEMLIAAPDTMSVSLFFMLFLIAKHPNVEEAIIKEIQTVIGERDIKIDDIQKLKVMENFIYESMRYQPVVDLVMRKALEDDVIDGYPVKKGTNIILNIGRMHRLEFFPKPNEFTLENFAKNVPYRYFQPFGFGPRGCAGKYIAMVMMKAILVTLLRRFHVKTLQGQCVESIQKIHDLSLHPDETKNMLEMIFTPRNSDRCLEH

Aromatase [2] = molecular target: T2, Aromatase (Rattus norvegicus, UniProt P22443); assay: Inhibition of aromatase in denucleated ovarian fraction extracted from PMSG pretreated Wistar rat by using testosterone as substrate at 1 uM
T2 sequence (P22443 whole entry): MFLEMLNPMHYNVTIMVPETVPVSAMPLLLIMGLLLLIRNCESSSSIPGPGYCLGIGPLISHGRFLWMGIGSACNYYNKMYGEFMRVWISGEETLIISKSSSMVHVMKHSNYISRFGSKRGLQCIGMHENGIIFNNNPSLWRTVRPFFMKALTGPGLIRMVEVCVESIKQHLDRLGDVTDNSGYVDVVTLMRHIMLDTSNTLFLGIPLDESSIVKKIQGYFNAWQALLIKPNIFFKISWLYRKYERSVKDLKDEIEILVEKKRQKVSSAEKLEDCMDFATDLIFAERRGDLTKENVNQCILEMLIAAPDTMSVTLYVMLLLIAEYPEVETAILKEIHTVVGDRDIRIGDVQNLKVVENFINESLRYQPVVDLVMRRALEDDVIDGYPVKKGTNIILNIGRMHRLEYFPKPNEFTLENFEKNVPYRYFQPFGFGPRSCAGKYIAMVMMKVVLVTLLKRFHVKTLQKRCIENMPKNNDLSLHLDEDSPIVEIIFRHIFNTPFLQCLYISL

Aromatase [3] = molecular target: T1, Aromatase; assay: Inhibition of human aromatase extracted from placental microsomes using [1beta,2beta-3H]androstenedione as substrate
Aromatase [4] = molecular target: T1, Aromatase; assay: Time dependent inactivation of human aromatase extracted from placental microsomes using [1-3H]androstenedione as substrate
Aromatase [5] = molecular target: T1, Aromatase; assay: Inhibition of human aromatase extracted from placental microsomes using [1,2-3H]androstenedione as substrate after 30 mins by scintillation counting analysis
Aromatase [6] = molecular target: T1, Aromatase; assay: Inhibition of human aromatase extracted from placental microsomes using [1beta,2beta-3H]testosterone as substrate measured at 7 to 21 mins by scintillation counting analysis
Aromatase [7] = molecular target: T1, Aromatase; assay: Inhibition of human aromatase extracted from placental microsomes using [1beta,2beta-3H]androstenedione as substrate after 10 mins
Aromatase [8] = molecular target: T1, Aromatase; assay: Competitive inhibition of human aromatase extracted from placental microsomes by double reciprocal plot analysis in presence of 4-androstene-3,17-dione; conditions: read-out: Ki(app)
Aromatase [9] = molecular target: T1, Aromatase; assay: Inhibition of human aromatase extracted from placental microsomes using [1-3H]androstenedione as substrate
Aromatase [10] = molecular target: T1, Aromatase; assay: Inhibition of human aromatase after 30 mins by fluorescence assay
Aromatase [11] = molecular target: T1, Aromatase; assay: Competitive inhibition of human aromatase extracted from placental microsomes after 10 mins by Lineweaver- Burk plots analysis in presence of [1beta-3H]androstenedione
Aromatase [12] = molecular target: T1, Aromatase; assay: Inhibition of human aromatase extracted from placental microsomes using [1beta-3H]androstenedione as substrate after 30 mins
Aromatase [13] = molecular target: T1, Aromatase; assay: Inhibition of human aromatase extracted from placental microsomes using [1beta-3H]androstenedione as substrate at 10 to 500 nM after 30 mins; conditions: 0.5 h
Aromatase [14] = molecular target: T1, Aromatase
Aromatase [15] = molecular target: T1, Aromatase; assay: Inhibition of human aromatase extracted from placental microsomes using [1-3H]androstenedione as substrate at […]
Aromatase [16] = molecular target: T2, Aromatase; assay: Inhibition of aromatase in denucleated ovarian fraction extracted from PMSG pretreated Wistar rat by using testosterone as substrate after 15 mins by radio immuno assay
Aromatase [17] = molecular target: T2, Aromatase; assay: Inhibition of rat aromatase extracted from ovarian fraction using testosterone as substrate

C[C@]12CCC(=O)C=C1[C@@H](Br)C[C@@H]1[C@@H]2CC[C@]2(C)C(=O)CC[C@@H]12
inhibition at […] (Aromatase [1]): 45%

C[C@]12CC[C@H]3[C@@H](CCC4=C(O)C(=O)CC[C@@]43C)[C@@H]1CC(=O)OC2
inhibition at 1 µM (Aromatase [2]): 34.8%

C[C@]12CC=C3[C@@H](CCC4=CC(=O)CC[C@@]43CCSCF)[C@@H]1CCC2=O
IC50 (Aromatase [3]): 50 nM

C[C@]12CC[C@H]3[C@@H](CCC4=CC(=O)[C@H]5C[C@H](O)[C@]43C5)[C@@H]1CCC2=O
Ki (Aromatase [4]): 926 nM

C[C@]12CC[C@H]3[C@@H](CCC4=CC(=O)[C@H]5C[C@@H](O)[C@]43C5)[C@@H]1CCC2=O
Ki (Aromatase [4]): 870 nM

C[C@]12CCC(=O)C(Oc3ccccc3)=C1C[C@@H](Sc1ccccc1)[C@@H]1[C@@H]2CC[C@]2(C)C(=O)CC[C@@H]12
IC50 (Aromatase [5]): 1650 nM

CC(=O)O[C@H]1CC[C@@]2(C)C(=C/C(=N\OCCCn3ccnc3)[C@H]3[C@@H]4CC[C@H](OC(C)=O)[C@@]4(C)CC[C@@H]32)C1
IC50 (Aromatase [6]): 12000 nM

C[C@]12CC[C@H]3[C@@H](CCC4=CC(=O)[C@H]5COC[C@]43C5)[C@@H]1CCC2=O
Ki (Aromatase [4]): 17.6 nM

C[C@]12CC[C@H]3[C@@H](/C(=N/OCCCn4ccnc4)C=C4C[C@@H](O)CC[C@@]43C)[C@@H]1CC[C@@H]2O
IC50 (Aromatase [6]): 3100 nM

C[C@]12CCC(=O)C(SCCl)=C1CC[C@@H]1[C@@H]2CC[C@]2(C)C(=O)CC[C@@H]12
IC50 (Aromatase [7]): 940 nM

C[C@]12C=CC(=O)C=C1C[C@@H](Sc1ccc(Br)cc1)[C@@H]1[C@@H]2CC[C@]2(C)C(=O)CC[C@@H]12
Ki (Aromatase [8]): 12 nM

C[C@]12CCC(=O)C(Oc3ccccc3)=C1CC[C@@H]1[C@@H]2CC[C@]2(C)C(=O)CC[C@@H]12
IC50 (Aromatase [5]): 530 nM

C=C1C=C2CC[C@@H]3[C@H](CC[C@]4(C)C(=O)CC[C@@H]34)[C@@]2(CO)CC1
inhibition (INH) (Aromatase [9]): 80%

CN1N=C2[C@H](C[C@H]3[C@@H]4CCC5=CC(=O)C=C[C@]5(C)[C@H]4CC[C@]23C)[C@H]1c1ccccc1
IC50 (Aromatase [10]): 1820 nM

C[C@]12CCC(=O)C(Sc3ccccc3)=C1C=C[C@@H]1[C@@H]2CC[C@]2(C)C(=O)CC[C@@H]12
Ki (Aromatase [11]): 9.8 nM

C[C@]12CC[C@H]3[C@@H](Cc4noc5c4[C@]3(C)CC[C@@H]5O)[C@@H]1CC[C@@H]2O
IC50 (Aromatase [12]): 120000 nM
inhibition (INH) (Aromatase [13]): 50%

C[C@]12CCC(=O)C(Sc3ccccc3)=C1CC[C@@H]1[C@@H]2CC[C@]2(C)C(=O)CC[C@@H]12
IC50 (Aromatase [5]): 190 nM

C[C@]12C=CC(=O)C=C1C=C(c1ccccc1)[C@@H]1[C@@H]2CC[C@]2(C)C(=O)CC[C@@H]12
Ki (Aromatase [14]): 2220 nM

C[C@]12CCC(=O)C=C1CC[C@@H]1[C@@H]2CC[C@]2(C)C(=O)[C@H](Br)C[C@@H]12
inhibition at […] (Aromatase [1]): 95%

C[C@]12CCC(=O)C=C1C[C@@H](Sc1ccc(Br)cc1)[C@@H]1[C@@H]2CC[C@]2(C)C(=O)CC[C@@H]12
inhibition at […] (Aromatase [15]): 45%

C[C@@H]1OC(=O)C[C@H]2[C@@H]3C=C[C@H]4C[C@@H](O)CC[C@]4(C)[C@H]3CC[C@]12C
IC50 (Aromatase [16]): 250 nM

C[C@]12CCC(=O)C=C1CC[C@@H]1[C@@H]2CC[C@@]2(C)[C@H]1CC[C@@]2(O)Cc1ccccn1
inhibition (INH) (Aromatase [17]): 51.5%

C[C@]12CCC(=O)c3onc(c31)C[C@@H]1[C@@H]2CC[C@]2(C)C(=O)CC[C@@H]12
IC50 (Aromatase [12]): 1890 nM
inhibition (INH) (Aromatase [13]): 50%
